Results on nine molecules are retold here after patent US12441757B2, “Platform for screening NAD+ binding proteins in a cellular context” (OREGON HEALTH & SCIENCE UNIVERSITY, priority 2020, dated 2025).

Entries after “also recorded” stand apart in the source; their conditions may differ.

Experiment [1] has as its target T1, PARP-1 (Homo sapiens, UniProt P09874).
T1 construct: Full length His6-PARP-1 and His6-SUMO-PARP-10 proteins we expressed and purified; His6 (N); made in house
Kind of experiment: Competition labeling of PARP-1 by 2-ad-BAD. Format: binding. The following applies: for block of 2-ad-BAD labeling of PARP-1 by nucleotides: 150 μM nucleotide, 0.3 μM 2-ad-BAD; for dose-dependent block of 2-ad-BAD labeling of PARP-1: competitor dose series. The text has this: (§1) FIG. 8. Densitometry analyses of FIG. 3A panels (A,B) comparing the inhibitory effect of nucleotides and (B) panels (C,D) comparing inhibitory effect of PARP inhibitors on PARP-1 and PARP-10 labelling by 2-ad-BAD. TAMRA in-gel fluorescence was normalized to Coomassie staining, except for PARP-1 NAD^+ treated samples where relative to control TAMRA signal is reported due to auto-PARylation induced molecular weight shift and therefore not detectable Coomassie signal at PARP-1 molecular weight of ˜110 kDa. Data are mean±SEM of 3 independent experiments.
(§2) Treatments. Recombinant PARP-1 (250 nM), PARP-10 (250 nM) or AK1 (500 nM; Novus Biologicals) were diluted in 100 mM NaCl, 50 mM HEPES [pH 7.4], 4 mM MgCl2, 0.2 mM TCEP. PARP-1 reactions also contained 10 μg/mL of activated calf thymus DNA (Sigma-Aldrich D4522), unless otherwise noted. In experiments reported in FIG. 2, the samples were treated with 0.1 μM 2-ad-BAD or ad-olaparib for 10 min. In competition experiments reported in FIG. 3 and Figure S3, samples were first treated with 150 μM of indicated nucleotides for 10 minute and then with 0.3 μM 2-ad-BAD for additional 10 min. All treatments occurred at RT. Samples were then kept in the dark or irradiated for 5 min in the RPR-100 Photochemical Reactor (Rayonet) equipped with 350 nm lamps at 4° C.
(§3) Click Chemistry. 25 μL of each sample was mixed with 5 μL of fatty acid free BSA and SDS to give a final Click reaction concentration of 1 mg/mL and 1%, respectively. Click reactions were started by adding 15 μL of PBS based 3× click reaction mix (final 1× concentrations shown): 100 μM Tris[(1-benzyl-1H-1,2,3triazol-4-yl)methyl]amine (TBTA, Click Chemistry Tools), 1 mM CuSO4, 40 μM tetramethylrhodamine (TAMRA)-azide (Click Chemistry Tools), 1 mM Tris(2-carboxyethyl)phosphine hydrochloride (TCEP, Thermo Fisher) and 5% tert-Butyl alcohol to each sample, and let to proceed for 1 h at RT while gently shaking. Reactions were stopped by adding 4× Laemmli sample buffer and boiling at 95° C. for 5 min.
(§4) In gel fluorescence and staining. Samples were loaded to 10 or 12% SDS-polyacrylamide gels and run until the dye front left the gel. In-gel fluorescence was detected with ChemiDoc XRS+ (Biorad) using Rhodamine filter and then the gels were stained with Coomassie blue or Silver using standard protocols.

For another experiment, the target named is T2, PARP-10 (Homo sapiens, UniProt Q53GL7).
T2 construct: Full length His6-PARP-1 and His6-SUMO-PARP-10 proteins we expressed and purified; His6 (N); SUMO (N); made in house
T2 sequence (Q53GL7 1-1025): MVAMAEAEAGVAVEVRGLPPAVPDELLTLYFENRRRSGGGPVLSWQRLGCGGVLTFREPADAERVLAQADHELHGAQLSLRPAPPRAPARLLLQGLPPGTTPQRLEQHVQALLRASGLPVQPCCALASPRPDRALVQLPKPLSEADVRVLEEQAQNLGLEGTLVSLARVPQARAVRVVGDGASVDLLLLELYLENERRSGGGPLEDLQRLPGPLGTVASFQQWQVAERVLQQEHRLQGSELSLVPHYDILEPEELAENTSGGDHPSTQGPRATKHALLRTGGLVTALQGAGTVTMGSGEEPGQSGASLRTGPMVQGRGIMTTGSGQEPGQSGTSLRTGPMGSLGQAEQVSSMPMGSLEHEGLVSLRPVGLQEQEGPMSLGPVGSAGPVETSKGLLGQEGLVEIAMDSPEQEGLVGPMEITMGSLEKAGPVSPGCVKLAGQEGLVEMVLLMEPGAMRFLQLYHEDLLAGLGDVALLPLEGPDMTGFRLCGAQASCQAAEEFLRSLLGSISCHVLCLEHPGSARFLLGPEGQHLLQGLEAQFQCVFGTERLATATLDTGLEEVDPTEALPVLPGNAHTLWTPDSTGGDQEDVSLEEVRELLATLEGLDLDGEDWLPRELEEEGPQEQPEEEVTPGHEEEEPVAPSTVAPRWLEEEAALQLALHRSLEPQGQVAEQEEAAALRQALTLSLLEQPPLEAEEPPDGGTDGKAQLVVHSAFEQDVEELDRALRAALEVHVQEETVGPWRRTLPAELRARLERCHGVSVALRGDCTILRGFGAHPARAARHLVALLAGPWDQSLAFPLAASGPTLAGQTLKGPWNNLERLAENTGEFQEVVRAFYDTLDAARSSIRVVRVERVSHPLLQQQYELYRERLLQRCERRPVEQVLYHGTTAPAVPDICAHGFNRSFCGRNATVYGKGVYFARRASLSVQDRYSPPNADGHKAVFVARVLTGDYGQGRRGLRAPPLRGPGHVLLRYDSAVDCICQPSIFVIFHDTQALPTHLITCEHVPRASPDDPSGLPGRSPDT
Kind of experiment: Competition labeling of PARP-10 by 2-ad-BAD. Format: binding. To be noted: for block of 2-ad-BAD labeling of PARP-10 by nucleotides: 150 μM nucleotide, 0.3 μM 2-ad-BAD; for dose-dependent block of 2-ad-BAD labeling of PARP-10: competitor dose series.
Excerpt: as §1, §2, §3, §4

For a further experiment, the target named is T3, Adenylate kinase 1 (AK1) (Homo sapiens, UniProt P00568).
T3 construct: purchased Novus Biologicals NBP1-50855
T3 sequence (P00568 1-194): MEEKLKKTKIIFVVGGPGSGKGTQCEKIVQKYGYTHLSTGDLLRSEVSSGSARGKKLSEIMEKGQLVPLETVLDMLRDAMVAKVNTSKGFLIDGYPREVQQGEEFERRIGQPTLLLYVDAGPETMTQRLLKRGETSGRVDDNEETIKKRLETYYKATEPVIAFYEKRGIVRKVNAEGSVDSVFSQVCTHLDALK
Kind of experiment: Labeling of recombinant AK1 by 2-ad-BAD and nucleotide competition. Format: binding. The following applies: 150 μM competitor, 0.3 μM 2-ad-BAD. The method, then: (§5) FIG. 10. Validation of Adenylate kinase 1 (AK1) as a putative NAD^+/NADH binding protein. […] Recombinant AK1 (500 nM) in 100 mM NaCl, 50 mM HEPES [pH 7.4], 4 mM MgCl2, 0.2 mM TCEP was incubated with 150 μM of indicated competitor molecule for 10 min, followed by 10 min treatment with 0.3 μM 2-ad-BAD. Samples were then subjected to UV light for 5 min, conjugated to TAMRA using Click chemistry, separated by SDS-PAGE and in-gel fluorescence was recorded. […] (FIG. 10B) A differential scanning fluorimetry assay is supportive of NADH as novel AK1 ligand. Recombinant AK1 (0.1 mg/mL) in 100 mM NaCl, 50 mM HEPES, pH 7.4, 4 mM MgCl2, 7.5× SYPRO Orange was tested for thermal stability in the absence or presence of indicated nucleotides at 1 mM. Ordinate reports on the difference of melt peak temperature prompted by indicated treatments. Data are mean±SEM of 3 independent experiments.
as §2, §3, §4

The test system of another experiment is squid AK. To be noted: cited from earlier work.
The test system of experiment [2] is AK1. To be noted: cited from earlier work.
The target of experiment [3] is T4, AK1 (Homo sapiens, UniProt P00568).
T4 construct: purchased Novus Biologicals NBP1-50855
T4 sequence (P00568 1-194): T3 sequence (P00568 1-194)
The experiment in a line: Differential scanning fluorimetry (DSF) of AK1. Format: binding. The following applies: nucleotide 1 mM, AK1 0.1 mg/mL. The method, then: as §5
Differential scanning fluorimetry was used to detect the AK1-ligand interaction. […] AK1 thermal stability upon treatment with ddH2O, ATP, ADP, NAD^+or NADH, 1 mM each, was measured on Biorad RT-PCR thermocycler using Cal Orange 560 filter. […] The melting temperature (Tm) for each sample was determined by calculating first derivative of the fluorescence (d(RFU)/dT) and shift in thermal stability (ΔTm) was calculated by subtracting vehicle—treated sample Tm from ligand-treated sample Tm.

The target in experiment [4] is T1, PARP-1. The experiment in a line: In vitro photocrosslinking and click chemistry labeling of PARP-1 (in-gel fluorescence). Format: binding. The following applies: 0.1 μM probe, UV 350 nm 5 min, presence or absence of damaged DNA. The method, then: as §2
Click Chemistry. 25 μL of each sample was mixed with 5 μL of fatty acid free BSA and SDS to give a final Click reaction concentration of 1 mg/mL and 1%, respectively. […]
In gel fluorescence and staining. […] In-gel fluorescence was detected with ChemiDoc XRS+ (Biorad) using Rhodamine filter and then the gels were stained with Coomassie blue or Silver using standard protocols.

T1 sequence (P09874 whole entry): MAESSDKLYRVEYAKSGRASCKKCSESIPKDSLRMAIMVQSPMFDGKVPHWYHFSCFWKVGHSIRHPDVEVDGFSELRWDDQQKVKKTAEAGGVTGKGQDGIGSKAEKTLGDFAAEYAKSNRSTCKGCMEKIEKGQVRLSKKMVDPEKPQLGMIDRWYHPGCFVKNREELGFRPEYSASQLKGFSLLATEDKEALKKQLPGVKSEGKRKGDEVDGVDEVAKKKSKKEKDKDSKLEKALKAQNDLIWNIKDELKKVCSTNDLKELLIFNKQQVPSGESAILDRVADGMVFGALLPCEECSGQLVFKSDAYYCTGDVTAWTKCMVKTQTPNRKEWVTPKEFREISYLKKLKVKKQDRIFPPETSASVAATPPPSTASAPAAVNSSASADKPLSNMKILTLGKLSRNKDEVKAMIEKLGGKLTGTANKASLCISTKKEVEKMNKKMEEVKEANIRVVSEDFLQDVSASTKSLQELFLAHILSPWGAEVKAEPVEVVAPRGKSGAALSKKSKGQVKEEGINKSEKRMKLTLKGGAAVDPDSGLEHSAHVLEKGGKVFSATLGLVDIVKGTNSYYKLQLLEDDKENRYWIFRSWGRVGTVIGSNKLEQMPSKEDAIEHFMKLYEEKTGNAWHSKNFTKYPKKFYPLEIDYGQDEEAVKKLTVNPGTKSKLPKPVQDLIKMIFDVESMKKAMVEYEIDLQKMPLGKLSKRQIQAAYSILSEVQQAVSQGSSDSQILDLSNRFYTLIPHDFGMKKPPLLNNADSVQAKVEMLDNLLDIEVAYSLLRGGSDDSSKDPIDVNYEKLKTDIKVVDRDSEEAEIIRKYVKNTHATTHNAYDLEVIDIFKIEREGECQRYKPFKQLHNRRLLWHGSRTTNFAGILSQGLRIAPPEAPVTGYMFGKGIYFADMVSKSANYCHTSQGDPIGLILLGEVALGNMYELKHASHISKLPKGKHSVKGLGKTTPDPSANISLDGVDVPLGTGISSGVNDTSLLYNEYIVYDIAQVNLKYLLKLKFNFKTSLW

Consider `Nc1ncnc2c1ncn2[C@@H]1O[C@H](COP(=O)(O)OP(=O)(O)O)[C@@H](O)[C@H]1O` [ADP], for which, at PARP-1 [1], the “block of 2-ad-BAD labeling of PARP-1 by nucleotides” value (“block … of PARP-1 by nucleotides” below) is given as “did not block”. For the same molecule, on PARP-10, the “block of 2-ad-BAD labeling of PARP-10 by nucleotides” value (from here on “block … of PARP-10 by nucleotides”) was “did not block”.
Turning to `Nc1ncnc2c1ncn2[C@@H]1O[C@H](COP(=O)(O)OP(=O)(O)OC[C@H]2OC(O)[C@H](O)[C@@H]2O)[C@@H](O)[C@H]1O` (stereo partly shown) [ADPr, ADP-ribose], the “block … of PARP-1 by nucleotides” value at PARP-1 [1] is “did not block”. Besides, on PARP-10, the “block … of PARP-10 by nucleotides” value was “did not block”. Besides, the “competition of 2-ad-BAD labeling of recombinant AK1” value (“competition” below) at Adenylate kinase 1 (AK1) is reported as “to a lesser extent”.
For `Nc1ncnc2c1ncn2[C@@H]1O[C@H](COP(=O)(O)O)[C@@H](O)[C@H]1O` [AMP], at Adenylate kinase 1 (AK1), the “competition” value was “effectively competed”.
As to `Nc1ncnc2c1ncn2[C@@H]1O[C@H](COP(=O)(O)OP(=O)(O)OP(=O)(O)O)[C@@H](O)[C@H]1O` [ATP, adenosine triphosphate], the “block … of PARP-1 by nucleotides” value on PARP-1 [1] is recorded as “did not block”. At PARP-10, the “block … of PARP-10 by nucleotides” value is “did not block”. Moreover, the “competition” value at Adenylate kinase 1 (AK1) is on record as “effectively competed”.
For the molecule `CC#Cc1ccc2c(=O)[nH]c(CSc3ccc(C(=O)O)cc3)nc2c1C` [ITK6], the “dose-dependent block of 2-ad-BAD labeling of PARP-1” value on PARP-1 [1] was “did not block the labeling of PARP-1”. On PARP-10, the “dose-dependent block of 2-ad-BAD labeling of PARP-10” value was “blocked the labeling of PARP-10”.
On to `NC(=O)C1=CN([C@@H]2O[C@H](COP(=O)(O)OP(=O)(O)OC[C@H]3O[C@@H](n4cnc5c(N)ncnc54)[C@H](O)[C@@H]3O)[C@@H](O)[C@H]2O)C=CC1` [NADH], for which, on PARP-1 [1], the “block … of PARP-1 by nucleotides” value is given as “reduced”. The “mode of inhibition of squid AK” value in the experiment with squid AK is recorded as “non-competitive inhibitor”. At PARP-10, the “block … of PARP-10 by nucleotides” value is “reduced”. For the same molecule, the “competition” value at Adenylate kinase 1 (AK1) is reported as “effectively competed”. Besides, the “inhibition of AK1 activity” value with AK1 [2] is on record as “competitively inhibited”. Further, the “shift in AK1 thermal stabilization (ΔTm) compared to vehicle control” value at AK1 [3] was “caused a shift in AK1 thermal stabilization; also recorded: showed a thermal shift similar to ATP and ADP”.
In the case of `NC(=O)c1ccc[n+]([C@@H]2O[C@H](COP(=O)([O-])OP(=O)(O)OC[C@H]3O[C@@H](n4cnc5c(N)ncnc54)[C@H](O)[C@@H]3O)[C@@H](O)[C@H]2O)c1` [NAD^+, Nicotinamide adenine dinucleotide], the “block … of PARP-1 by nucleotides” value on PARP-1 [1] is reported as “reduced”. In addition, the “block … of PARP-10 by nucleotides” value at PARP-10 is recorded as “reduced”. The “competition” value at Adenylate kinase 1 (AK1) was “to a lesser extent”. Further, the “inhibition of AK1 activity” value in the experiment on AK1 [2] is “competitively inhibited”. In addition, the “shift in AK1 thermal stabilization (ΔTm) compared to vehicle control” value at AK1 [3] is reported as “caused a shift in AK1 thermal stabilization”.
Turning to `NC(=O)c1cc(F)cc2c1C(=O)N(C1CCN(C3CCC(F)(F)CC3)CC1)C2` [NMS-P118, 2-[1-(4,4-Difluorocyclohexyl)Piperidin-4-Yl]-6-Fluoro-3-Oxo-2,3-Dihydro-1H-Isoindole-4-Carboxamide], the “dose-dependent block of 2-ad-BAD labeling of PARP-1” value on PARP-1 [1] is on record as “blocked the labeling of PARP-1”. Moreover, the “dose-dependent block of 2-ad-BAD labeling of PARP-10” value at PARP-10 is on record as “did not block the labeling of PARP-10”.
`C#CCCC1(CCOC(=O)N2CCN(C(=O)c3cc(Cc4n[nH]c(=O)c5ccccc45)ccc3F)CC2)N=N1` [ad-olaparib, 2-(3-(but-3-yn-1-yl)-3H-diazirin-3-yl)ethyl 4-(2-fluoro-5-((4-oxo-3,4-dihydrophthalazin-1-yl)methyl)benzoyl) piperazine-1-carboxylate]: the “UV-dependent labeling of PARP-1, dependence on damaged DNA” value on PARP-1 [4] is recorded as “labels PARP-1 independent of PARP-1 binding to damaged DNA”.
